Drawing on patent US7329754B2, “2,5-diazabicyclo[2.2.1]heptane derivatives” (Neurosearch A/S, priority 2001, dated 2008), this text covers IC50 for 6 compounds.

A word on the IC50: it is the concentration at which inhibition is half-maximal.

Counter-ions that a name gives are not always drawn.

In one experiment the target is serotonin transporter (Rattus norvegicus, UniProt P31652). The experiment in a line: Serotonin transporter/uptake assay: synaptosomal uptake of 3H-5-hydroxytryptamine. It is filed as biochemical.
serotonin transporter, sequence (P31652 whole entry): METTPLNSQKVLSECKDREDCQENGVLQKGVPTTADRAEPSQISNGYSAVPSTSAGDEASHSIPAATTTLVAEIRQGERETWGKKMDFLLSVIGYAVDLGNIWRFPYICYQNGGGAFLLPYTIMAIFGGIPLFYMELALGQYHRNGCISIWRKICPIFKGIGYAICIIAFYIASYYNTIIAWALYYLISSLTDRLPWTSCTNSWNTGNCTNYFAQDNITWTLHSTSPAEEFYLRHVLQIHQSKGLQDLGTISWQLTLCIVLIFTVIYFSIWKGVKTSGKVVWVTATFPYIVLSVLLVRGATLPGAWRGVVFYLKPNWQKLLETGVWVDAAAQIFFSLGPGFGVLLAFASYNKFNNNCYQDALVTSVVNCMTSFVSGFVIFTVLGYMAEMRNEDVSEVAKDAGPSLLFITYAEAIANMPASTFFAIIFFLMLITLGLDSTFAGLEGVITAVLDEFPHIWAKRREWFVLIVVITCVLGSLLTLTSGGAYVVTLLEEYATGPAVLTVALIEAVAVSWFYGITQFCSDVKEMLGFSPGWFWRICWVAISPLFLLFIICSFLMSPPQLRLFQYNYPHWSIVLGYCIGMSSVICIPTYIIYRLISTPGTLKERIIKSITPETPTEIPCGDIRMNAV
Settings: not given
As to the method:
In this example the biological activity of the compounds of the invention are determined using a serotonin transporter/uptake assay. Serotonin transporters/uptake sites on nerve terminals presumably function to terminate neuronal signaling by removing serotonin from the synaptic cleft. The activity of the serotonin transporter integral protein can be measured in vitro by synaptosomal uptake of ^3H-5-hydroxytryptamine.
Preparations are performed at 0-4° C. Cerebral cortices from male Wistar rats (150-200 g) are homogenized for 5-10 seconds in 100 volumes of ice-cold 0.32 M sucrose containing 1 mM pargyline, and using a motor driven teflon pestle in a glass homogenizing vessel.
Monoamine oxidase activity becomes inhibited by pargyline.
The homogenate is centrifuged at 1000×g for 10 minutes. The resulting supernatant is subjected to centrifugation at 27,000×g for 50 minutes, and the supernatant is discarded. The pellet (P2) is re-suspended in oxygenated (equilibrated with an atmosphere of 96% O2: 4% CO2 for at least 30 minutes) Krebs-Ringer incubation buffer (1000 ml per g of original tissue) at pH 7.2, containing 122 mM NaCl, 0.16 mM EDTA, 4.8 mM KCl, 12.7 mM Na2HPO4, 3.0 mM NaH2PO4, 1.2 mM MgSO4, 1 mM CaCl2, 10 mM glucose and 1 mM ascorbic acid.
Aliquots of 4.0 ml tissue suspension are added to 100 μl of test solution and 100 μl of ^3H-5-HT (1 nM, final concentration), mixed and incubated for 30 minutes at 37° C. Non-specific uptake is determined using Citalopram (1 μM, final concentration; Available from H. Lundbeck, Denmark), a serotonin reuptake inhibitor.
After incubation the samples are poured directly onto Whatman GF/C glass fibre filters under suction. The filters are washed three times with 5 ml of ice-cold 0.9% (w/v) NaCl solution.
The amount of radioactivity on the filters is determined by conventional liquid scintillation counting. Specific uptake is calculated as the difference between total uptake and non-specific uptake.
25-75% inhibition of specific binding must be obtained, before calculation of an IC50.
The test value is presented as IC50 (the concentration (μM) of the test substance which inhibits the specific binding of ^3H-5-HT by 50%), calculated according to the following equation: […]
where Co is specific binding in control assays and Cx is the specific binding in the test assay (the calculations assume normal mass-action kinetics).
As for `c1ccc2nc(N3C[C@@H]4C[C@H]3CN4)ccc2c1` [Compound 1, 2-(2-Quinolinyl)-(1S,4S)-2,5-diazabicyclo-[2.2.1]-heptane fumaric acid salt], the IC50 was found to be 88 nM.

The compound `O=[N+]([O-])c1ccc2nc(N3C[C@@H]4C[C@H]3CN4)ccc2c1` [Compound 3, 2-(6-Nitro-2-quinolinyl)-(1S,4S)-2,5-diazabicyclo-[2.2.1]-heptane fumaric acid salt] showed a half-inhibitory concentration (IC50) of 0.24 nM.

Compound `CN1C[C@@H]2C[C@H]1CN2c1ccc2cc([N+](=O)[O-])ccc2n1` [Compound 4, 2-(6-Nitro-2-quinolinyl)-5-methyl-(1S,4S)-2,5-diazabicyclo-[2.2.1]-heptane fumaric acid salt] came in with an IC50 of 3.4 nM.

Staying with this experiment, now noted: synaptosomes from cerebral cortices of male Wistar rats; 3H-5-HT 1 nM; 30 minutes at 37° C.; read-out: Serotonin uptake IC50.
Consider `CN1C[C@@H]2C[C@H]1CN2c1ccc2ccccc2n1` [Compound 2, 2-(2-Quinolinyl)-5-methyl-(1S,4S)-2,5-diazabicyclo-[2.2.1]-heptane], for which the IC50 came to 130 nM.

Regarding `CN1C[C@@H]2C[C@H]1CN2c1ccc2cc(N)ccc2n1` [Compound 5, 2-(6-Amino-2-quinolinyl)-5-methyl-(1S,4S)-2,5-diazabicyclo-[2.2.1]-heptane fumaric acid salt], the IC50 came to 840 nM.

As for `c1ccc2sc(N3C[C@@H]4C[C@H]3CN4)nc2c1` [Compound 7, 2-(2-Benzothiazolyl)-(1S,4S)-2,5-diazabicyclo-[2.2.1]-heptane fumaric acid salt], the IC50 came out at 350 nM.
